In ChEMBL document CHEMBL5244273, “Tuberculosis: An Overview of the Immunogenic Response, Disease Progression, and Medicinal Chemistry Efforts in the Last Decade toward the Development of Potential Drugs for Extensively Drug-Resistant Tuberculosis Strains” (J Med Chem, 2021):
In brackets after ≈: the same amount, converted by molar mass.

What was measured:
[1] = tested on: Mycobacterium tuberculosis; test: Antimycobacterial activity against multidrug resistant Mycobacterium tuberculosis H37Rv; type: functional
[2] = tested on: Mycobacterium tuberculosis; test: Antimycobacterial activity against extensively drug resistant Mycobacterium tuberculosis H37Rv; type: functional
[3] = tested on: Mycobacterium tuberculosis; test: Potentiation of ethionamide induced antibacterial activity against Mycobacterium tuberculosis W4-E1 harboring EthA Gly343Ala mutant expressing GFP incubated for 5 days by fluorescence based analysis; type: functional, organism-based
[4] = tested on: Mycobacterium tuberculosis; test: Antimycobacterial activity against isoniazid, rifampicin, amikacin and moxifloxacin resistant Mycobacterium tuberculosis by broth dilution method; type: functional
[5] = tested on: Mycobacterium tuberculosis; test: Antimycobacterial activity against rifampicin resistant Mycobacterium tuberculosis by broth dilution method; type: functional
[6] = tested on: Mycobacterium tuberculosis; test: Antimycobacterial activity against isoniazid and rifampicin resistant Mycobacterium tuberculosis by broth dilution method; type: functional

CC(=O)N1N=C(c2ccc3oc(-c4ccc(O)cc4)nc3c2)CC1c1cccs1 (configuration not stated)
MIC [1]: 3.12 mg/L (≈ 7.73 µM) | MIC [2]: 12.5 mg/L (≈ 31 µM)

O=C(CCC(F)(F)F)N1CCC(F)(c2ccnc(Cl)c2)CC1
EC50 [3]: < 1.3 µM

NC(=O)N1N=C(c2ccc3oc(N)nc3c2)CC1c1cccs1 (configuration not stated)
MIC [1]: 12.5 mg/L (≈ 38.2 µM) | MIC [2]: 50 mg/L (≈ 153 µM)

Cc1cc(-c2cn(C[C@@]3(C)Cn4cc([N+](=O)[O-])nc4O3)nn2)ccc1F
MIC [4]: 2 mg/L (≈ 5.58 µM) | MIC [5]: 1 mg/L (≈ 2.79 µM) | MIC [6]: 4 mg/L (≈ 11.2 µM)

O=C(CCC(F)(F)F)N1CC(C2CCCCC2)C1
EC50 [3]: < 0.075 µM

O=C(CCC(F)(F)F)N1CCC(F)(c2ccnc(F)c2)CC1
EC50 [3]: < 1.3 µM

Cc1ccc(OCc2cn(C[C@@]3(C)Cn4cc([N+](=O)[O-])nc4O3)nn2)cc1
MIC [4]: 8 mg/L (≈ 21.6 µM) | MIC [5]: 8 mg/L (≈ 21.6 µM) | MIC [6]: 2 mg/L (≈ 5.4 µM)

CC(=O)N1N=C(c2ccc3oc(N)nc3c2)CC1c1cccs1 (configuration not stated)
MIC [1]: 6.25 mg/L (≈ 19.1 µM) | MIC [2]: 25 mg/L (≈ 76.6 µM)

CC(=O)N1N=C(c2ccc3oc(NC(=O)c4ccccc4)nc3c2)CC1c1cccs1 (configuration not stated)
MIC [1]: 12.5 mg/L (≈ 29 µM) | MIC [2]: 50 mg/L (≈ 116 µM)

CCc1ccc(OCc2cn(C[C@@]3(C)Cn4cc([N+](=O)[O-])nc4O3)nn2)cc1
MIC [4]: 4 mg/L (≈ 10.4 µM) | MIC [5]: 4 mg/L (≈ 10.4 µM) | MIC [6]: 2 mg/L (≈ 5.2 µM)

O=C(CCC(F)(F)F)N1CCC(F)(c2cncc(Cl)c2)CC1
EC50 [3]: < 1.3 µM

C[C@]1(Cn2cc(CN3CCOCC3)nn2)Cn2cc([N+](=O)[O-])nc2O1
MIC [4]: 2 mg/L (≈ 5.72 µM) | MIC [5]: 2 mg/L (≈ 5.72 µM) | MIC [6]: 2 mg/L (≈ 5.72 µM)

Cc1cccc(OCc2cn(C[C@@]3(C)Cn4cc([N+](=O)[O-])nc4O3)nn2)c1
MIC [4]: 2 mg/L (≈ 5.4 µM) | MIC [5]: 1 mg/L (≈ 2.7 µM) | MIC [6]: 1 mg/L (≈ 2.7 µM)

CC(=O)N1N=C(c2ccc3oc(NC(=O)CCl)nc3c2)CC1c1cccs1 (configuration not stated)
MIC [1]: 3.12 mg/L (≈ 7.74 µM) | MIC [2]: 12.5 mg/L (≈ 31 µM)

O=C(CCC(F)(F)F)N1CCC2(CC1)CC(Br)=NO2
EC50 [3]: < 0.14 µM

Cc1ccc(OCCc2cn(C[C@@]3(C)Cn4cc([N+](=O)[O-])nc4O3)nn2)cc1
MIC [4]: 0.25 mg/L (≈ 0.65 µM) | MIC [5]: 1 mg/L (≈ 2.6 µM) | MIC [6]: 0.25 mg/L (≈ 0.65 µM)

Cc1ccc(SCc2cn(C[C@@]3(C)Cn4cc([N+](=O)[O-])nc4O3)nn2)cc1
MIC [4]: 2 mg/L (≈ 5.18 µM) | MIC [5]: 0.25 mg/L (≈ 0.647 µM) | MIC [6]: 0.5 mg/L (≈ 1.29 µM)

C[C@]1(Cn2cc(-c3ccc(C(F)(F)F)cc3)nn2)Cn2cc([N+](=O)[O-])nc2O1
MIC [4]: 2 mg/L (≈ 5.07 µM) | MIC [5]: 4 mg/L (≈ 10.1 µM) | MIC [6]: 2 mg/L (≈ 5.07 µM)

O=C(CCC(F)(F)F)N1CC(c2cccc(Cl)c2)C1
EC50 [3]: < 0.075 µM

O=C(CCC(F)(F)F)N1CCC(F)(c2cncc(C(F)(F)F)c2)CC1
EC50 [3]: < 1.3 µM

CC(=O)N1N=C(c2ccc3oc(S)nc3c2)CC1c1cccs1 (configuration not stated)
MIC [1]: 25 mg/L (≈ 72.8 µM) | MIC [2]: > 100 mg/L

C[C@]1(Cn2cc(-c3ccc(F)cc3)nn2)Cn2cc([N+](=O)[O-])nc2O1
MIC [4]: 2 mg/L (≈ 5.81 µM) | MIC [5]: 2 mg/L (≈ 5.81 µM) | MIC [6]: 2 mg/L (≈ 5.81 µM)

O=C(CCC(F)(F)F)N1CCC(F)(c2cc(C(F)(F)F)ccn2)CC1
EC50 [3]: < 1.3 µM

COC1=NOC2(CCN(C(=O)CCCl)CC2)C1
EC50 [3]: < 0.14 µM

O=C(CCCl)N1CCC2(CC1)CC(C(F)(F)F)=NO2
EC50 [3]: < 0.14 µM

CCC1=NOC2(CCN(C(=O)CCC(F)(F)F)CC2)C1
EC50 [3]: < 0.14 µM

O=C(CCC(F)(F)F)N1CCC(c2ccnc(Cl)c2)CC1
EC50 [3]: < 1.3 µM

CCOC1=NOC2(CCN(C(=O)CCC(F)(F)F)CC2)C1
EC50 [3]: < 0.14 µM

O=C(CCC(F)(F)F)N1CCC2(CC1)CC(OCC(F)(F)F)=NO2
EC50 [3]: < 0.14 µM

O=C(CCC(F)(F)F)N1CCC(c2cnc(F)c(F)c2)CC1
EC50 [3]: < 1.3 µM

C[C@]1(Cn2cc(COc3cccc(F)c3)nn2)Cn2cc([N+](=O)[O-])nc2O1
MIC [4]: 2 mg/L (≈ 5.34 µM) | MIC [5]: 2 mg/L (≈ 5.34 µM) | MIC [6]: 2 mg/L (≈ 5.34 µM)

CCCOC1=NOC2(CCN(C(=O)CCC(F)(F)F)CC2)C1
EC50 [3]: < 0.14 µM

CCCCCCOC1=NOC2(CCN(C(=O)CCC(F)(F)F)CC2)C1
EC50 [3]: < 0.14 µM

O=C(CCC(F)(F)F)N1CCC(c2ncc(F)cc2F)CC1
EC50 [3]: < 1.3 µM

C[C@]1(Cn2cc(-c3ccc(F)cc3F)nn2)Cn2cc([N+](=O)[O-])nc2O1
MIC [4]: 4 mg/L (≈ 11 µM) | MIC [5]: 4 mg/L (≈ 11 µM) | MIC [6]: 1 mg/L (≈ 2.76 µM)

O=C(CCCC(F)(F)F)N1CCC(c2cncc(Cl)c2)CC1
EC50 [3]: < 1.3 µM

C[C@]1(Cn2cc(-c3ccc(OC(F)(F)F)cc3)nn2)Cn2cc([N+](=O)[O-])nc2O1
MIC [4]: 1 mg/L (≈ 2.44 µM) | MIC [5]: 2 mg/L (≈ 4.87 µM) | MIC [6]: 2 mg/L (≈ 4.87 µM)

O=C(CCC(F)(F)F)N1CCC(c2cncc(Cl)c2)C1 (configuration not stated)
EC50 [3]: < 1.3 µM

O=C(CCC(F)(F)F)N1CCC(F)(c2cccnc2)CC1
EC50 [3]: < 1.3 µM

Cc1ccccc1OCc1cn(C[C@@]2(C)Cn3cc([N+](=O)[O-])nc3O2)nn1
MIC [4]: 1 mg/L (≈ 2.7 µM) | MIC [5]: 1 mg/L (≈ 2.7 µM) | MIC [6]: 1 mg/L (≈ 2.7 µM)

O=C(CCC(F)(F)F)N1CCC(F)(c2ccnc(C(F)(F)F)c2)CC1
EC50 [3]: < 1.3 µM

O=C(CCC(F)(F)F)N1CCC2(CC1)CC(F)=NO2
EC50 [3]: < 0.14 µM

O=C(CCC(F)(F)F)N1CCC(c2cccc(C(F)(F)F)n2)CC1
EC50 [3]: < 1.3 µM

O=C(CCC(F)(F)F)N1CCC(c2cncc(C(F)(F)F)n2)CC1
EC50 [3]: < 1.3 µM

O=C(CCC(F)(F)F)N1CCC(c2cncc(F)c2)CC1
EC50 [3]: < 1.3 µM

C[C@]1(Cn2cc(COc3ccccc3F)nn2)Cn2cc([N+](=O)[O-])nc2O1
MIC [4]: 1 mg/L (≈ 2.67 µM) | MIC [5]: 1 mg/L (≈ 2.67 µM) | MIC [6]: 0.5 mg/L (≈ 1.34 µM)

C[C@]1(Cn2cc(COc3ccc(Br)cc3)nn2)Cn2cc([N+](=O)[O-])nc2O1
MIC [4]: 0.25 mg/L (≈ 0.574 µM) | MIC [5]: 0.12 mg/L (≈ 0.276 µM) | MIC [6]: 0.12 mg/L (≈ 0.276 µM)

O=C(CCC(F)(F)F)N1CCC(c2cncc(C(F)(F)F)c2)CC1
EC50 [3]: < 1.3 µM

O=C(CCC(F)(F)F)N1CCC(F)(c2ccc(F)nc2)CC1
EC50 [3]: < 1.3 µM

C[C@]1(Cn2cc(COc3cccc(Cl)c3)nn2)Cn2cc([N+](=O)[O-])nc2O1
MIC [4]: 4 mg/L (≈ 10.2 µM) | MIC [5]: 2 mg/L (≈ 5.12 µM) | MIC [6]: 2 mg/L (≈ 5.12 µM)

O=C(CCC(F)(F)F)N1CCC(c2ccncc2F)CC1
EC50 [3]: < 1.3 µM

O=C(CCC(F)(F)F)N1CCC(c2ccc(F)nc2F)CC1
EC50 [3]: < 1.3 µM

C[C@]1(Cn2cc(-c3ccc(Oc4ccccc4)cc3)nn2)Cn2cc([N+](=O)[O-])nc2O1
MIC [4]: 1 mg/L (≈ 2.39 µM) | MIC [5]: 1 mg/L (≈ 2.39 µM) | MIC [6]: 1 mg/L (≈ 2.39 µM)

CC(C)c1ccc(OCc2cn(C[C@@]3(C)Cn4cc([N+](=O)[O-])nc4O3)nn2)cc1
MIC [4]: 4 mg/L (≈ 10 µM) | MIC [5]: 2 mg/L (≈ 5.02 µM) | MIC [6]: 1 mg/L (≈ 2.51 µM)

O=C(CCC(F)(F)F)N1CCC(c2ccc(F)cn2)CC1
EC50 [3]: < 1.3 µM

COc1ccc(C2CCN(C(=O)CCC(F)(F)F)CC2)cn1
EC50 [3]: < 1.3 µM

C[C@]1(Cn2cc(COc3ccc(OC(F)(F)F)cc3)nn2)Cn2cc([N+](=O)[O-])nc2O1
MIC [4]: 2 mg/L (≈ 4.54 µM) | MIC [5]: 2 mg/L (≈ 4.54 µM) | MIC [6]: 2 mg/L (≈ 4.54 µM)

C[C@]1(Cn2cc(COc3ccc(C(F)(F)F)cc3)nn2)Cn2cc([N+](=O)[O-])nc2O1
MIC [4]: 4 mg/L (≈ 9.43 µM) | MIC [5]: 4 mg/L (≈ 9.43 µM) | MIC [6]: 4 mg/L (≈ 9.43 µM)

O=C(CCC(F)(F)F)N1CCC(c2cc(C(F)(F)F)ccn2)CC1
EC50 [3]: < 1.3 µM

O=C(CCC(F)(F)F)N1CCC(c2ccnc(C(F)(F)F)c2)CC1
EC50 [3]: < 1.3 µM

CCCCCc1cn(C[C@@]2(C)Cn3cc([N+](=O)[O-])nc3O2)nn1
MIC [4]: 8 mg/L (≈ 25 µM) | MIC [5]: 8 mg/L (≈ 25 µM) | MIC [6]: 2 mg/L (≈ 6.24 µM)

O=C(CCC(F)(F)F)N1CCC(c2cccc(Cl)n2)CC1
EC50 [3]: < 1.3 µM

O=C(CCC(F)(F)F)N1CC(c2ccc(F)cc2F)C1
EC50 [3]: < 0.075 µM

CC1=NOC2(CCN(C(=O)CCC(F)(F)F)CC2)C1
EC50 [3]: < 0.14 µM

O=C(CCC(F)(F)F)N1CCC(c2ccnc(F)c2)CC1
EC50 [3]: < 1.3 µM

COc1cccc(C(=O)Nc2nc3cc(C4=NN(C(C)=O)C(c5cccs5)C4)ccc3o2)c1 (configuration not stated)
MIC [1]: 3.12 mg/L (≈ 6.78 µM) | MIC [2]: 12.5 mg/L (≈ 27.1 µM)

O=C(CCC(F)(F)F)N1CC(c2cc(F)c(F)c(F)c2)C1
EC50 [3]: < 0.075 µM

O=C(CCC(F)(F)F)N1CCC(c2cncc(Cl)n2)CC1
EC50 [3]: < 1.3 µM

O=C(CCC(F)(F)F)N1CCC(F)(c2ccccn2)CC1
EC50 [3]: < 1.3 µM

Cc1cc(C2CCN(C(=O)CCC(F)(F)F)CC2)ccn1
EC50 [3]: < 1.3 µM

O=C(CCC(F)(F)F)N1CCC(c2ccc(F)nc2)CC1
EC50 [3]: < 1.3 µM

O=C(CCC(F)(F)F)N1CCC(c2cccc(F)n2)CC1
EC50 [3]: < 1.3 µM

CC(C)COC1=NOC2(CCN(C(=O)CCC(F)(F)F)CC2)C1
EC50 [3]: < 0.14 µM

C[C@]1(Cn2cc(COc3ccccn3)nn2)Cn2cc([N+](=O)[O-])nc2O1
MIC [4]: 0.5 mg/L (≈ 1.4 µM) | MIC [5]: 0.5 mg/L (≈ 1.4 µM) | MIC [6]: 0.25 mg/L (≈ 0.7 µM)

N#CC1=NOC2(CCN(C(=O)CCC(F)(F)F)CC2)C1
EC50 [3]: < 0.14 µM

O=C(CCC(F)(F)F)N1CCC(c2cncc(Cl)c2)CC1
EC50 [3]: < 1.3 µM
